The text below walks through data of publication PMC4230938, “A High-Yield Co-Expression System for the Purification of an Intact Drs2p-Cdc50p Lipid Flippase Complex, Critically Dependent on and Stabilized by Phosphatidylinositol-4-Phosphate” (PLoS ONE, 2014).

Data set [1] has as its target T1, Drs2p-Cdc50p complex (Saccharomyces cerevisiae, UniProt P39524).
T1 construct: gene DRS2; full-length, co-expressed in yeast W303.1b/GAL4; N-terminal Bad tag (Drs2p) and His10 tag (Cdc50p) cut by TEV, Gly plus four-Gly linker left; 154,050 Da Drs2p, 45,136 Da unglycosylated Cdc50p; glycosylated; 1:1 complex in DDM; with Cell division control protein 50
T1 sequence (P39524 1-1355): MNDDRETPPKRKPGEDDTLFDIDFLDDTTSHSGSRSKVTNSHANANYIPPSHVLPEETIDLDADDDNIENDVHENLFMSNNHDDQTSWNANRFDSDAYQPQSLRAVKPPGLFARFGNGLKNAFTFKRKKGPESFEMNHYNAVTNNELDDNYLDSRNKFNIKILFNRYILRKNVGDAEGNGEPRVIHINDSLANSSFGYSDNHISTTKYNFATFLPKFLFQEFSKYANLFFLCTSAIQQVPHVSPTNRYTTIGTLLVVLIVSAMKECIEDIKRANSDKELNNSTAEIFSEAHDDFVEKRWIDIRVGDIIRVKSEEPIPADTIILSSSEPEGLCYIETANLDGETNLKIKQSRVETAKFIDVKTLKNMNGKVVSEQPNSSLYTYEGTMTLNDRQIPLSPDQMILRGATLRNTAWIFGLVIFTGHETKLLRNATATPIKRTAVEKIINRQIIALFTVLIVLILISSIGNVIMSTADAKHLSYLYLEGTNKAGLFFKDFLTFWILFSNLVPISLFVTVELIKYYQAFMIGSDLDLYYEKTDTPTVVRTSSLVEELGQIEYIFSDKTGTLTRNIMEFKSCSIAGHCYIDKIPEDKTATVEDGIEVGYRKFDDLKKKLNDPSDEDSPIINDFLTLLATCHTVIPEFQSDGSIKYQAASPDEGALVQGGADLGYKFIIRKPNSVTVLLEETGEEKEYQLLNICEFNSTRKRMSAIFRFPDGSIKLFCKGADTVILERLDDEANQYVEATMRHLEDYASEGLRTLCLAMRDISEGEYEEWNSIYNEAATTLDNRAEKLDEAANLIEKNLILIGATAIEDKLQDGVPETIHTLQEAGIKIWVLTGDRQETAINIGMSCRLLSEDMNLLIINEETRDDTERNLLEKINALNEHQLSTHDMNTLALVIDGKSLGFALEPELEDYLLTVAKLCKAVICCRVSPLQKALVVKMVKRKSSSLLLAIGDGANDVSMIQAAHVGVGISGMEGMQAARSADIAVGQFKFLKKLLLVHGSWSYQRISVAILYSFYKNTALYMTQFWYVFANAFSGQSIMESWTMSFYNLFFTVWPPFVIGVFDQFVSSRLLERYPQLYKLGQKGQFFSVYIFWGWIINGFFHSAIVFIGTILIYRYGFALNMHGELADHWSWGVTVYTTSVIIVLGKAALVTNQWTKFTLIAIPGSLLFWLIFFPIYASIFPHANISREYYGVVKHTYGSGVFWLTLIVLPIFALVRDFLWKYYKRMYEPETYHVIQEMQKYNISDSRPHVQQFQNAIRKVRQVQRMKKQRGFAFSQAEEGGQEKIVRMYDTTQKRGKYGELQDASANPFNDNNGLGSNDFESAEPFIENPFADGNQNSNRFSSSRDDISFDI
T1 sequence (P25656 1-391 partner): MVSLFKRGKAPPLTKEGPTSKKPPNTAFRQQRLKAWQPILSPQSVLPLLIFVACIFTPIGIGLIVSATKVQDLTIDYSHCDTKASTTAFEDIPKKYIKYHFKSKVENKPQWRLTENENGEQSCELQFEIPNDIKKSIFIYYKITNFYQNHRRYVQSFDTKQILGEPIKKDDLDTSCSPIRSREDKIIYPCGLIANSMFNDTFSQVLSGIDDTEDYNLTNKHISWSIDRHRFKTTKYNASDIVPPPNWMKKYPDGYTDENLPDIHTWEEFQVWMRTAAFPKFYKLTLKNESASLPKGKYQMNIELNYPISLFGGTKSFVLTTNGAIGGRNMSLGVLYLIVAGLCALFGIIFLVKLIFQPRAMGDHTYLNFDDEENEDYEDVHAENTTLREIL
Nature of the data set: ATPase activity of complex purified without PS. Type of data set: biochemical. As to conditions: lipid stimulation at 0.05 mg/mL; 0.025 mg/mL PI4P, 1 mM Mg-ATP, 1 mg/mL DDM, pH 7, 30 °C.

For data set [2], the target named is T1, Drs2p-Cdc50p complex. The experiment in a line: ATPase activity, colorimetric Pi release. Type of data set: biochemical. As to conditions: transported lipid stimulating ATPase; 0.025 mg/mL PI4P, 1 mM Mg-ATP, 1 mg/mL DDM, pH 7, 30 °C; residual PS from purification present; read-out: [PS]1/2.
The target of data set [3] is T1, Drs2p-Cdc50p complex. Nature of the data set: ATPase activity, colorimetric Pi release. The class given is biochemical. As to conditions: inhibitor; 1 h pre-incubation on ice; 1 mM ATP, 0.025 mg/mL PI4P, 0.05 mg/mL POPS, 1 mg/mL DDM, pH 7, 30 °C; printed only as a range.
Substrate in data set [4]: Nc1ncnc2c1ncn2[C@@H]1O[C@H](COP(=O)(O)OP(=O)(O)OP(=O)(O)O)[C@@H](O)[C@H]1O
Nature of the data set: ATPase activity, colorimetric Pi release. Particulars: 0.025 mg/mL PI4P, 0.05 mg/mL POPS, 1 mg/mL DDM, ATP-regenerating system, pH 7, 30 °C. Type of data set: biochemical, Saccharomyces cerevisiae.

The target in data set [5] is T2, Drs2p, tag-free after TEV cleavage (S. cerevisiae, UniProt P39524 1-1355).
T2 construct: Drs2p, yeast P4-ATPase; theoretical mass of the recombinant protein 154,050 Da; also called purified Drs2p; source: S. cerevisiae W303.1b/GAL4, co-expressed with Cdc50p, purified (streptavidin-Sepharose, TEV elution, Ni2+-TED; SEC); not shown: Bad (Biotin Acceptor Domain), N-terminal, cleaved
T2 sequence (looked up): T1 sequence (P39524 1-1355)
The experiment in a line: in-gel fluorescence of haloalkane-modified Trp residues after SDS-PAGE; band intensities of Drs2p and Cdc50p in the streptavidin-purified complex, 4-20% gradient gel. Particulars: both partners purified.

On to `CCCCCCCCCCCCCC(=O)OC[C@H](COP(=O)(O)OC[C@H](N)C(=O)O)OC(=O)CCCCCCCCCCCCC` [DMPS, 1,2-dimyristoyl-sn-glycero-3-phospho-L-serine], for which the “ATPase activity of complex purified without PS” value in data set [1] was “PS had the largest stimulating effect, irrespective of its fatty acyl chain (POPS or DMPS)”.

With `CCCCCCCC/C=C\CCCCCCCC(=O)O[C@H](COC(=O)CCCCCCCCCCCCCCC)COP(=O)(O)OCCN` [POPE, 1-palmitoyl-2-oleoyl-sn-glycero-3-phosphoethanolamine], the “ATPase activity of complex purified without PS” value in data set [1] is on record as “POPC only had a slightly stimulating effect, POPE had a larger one”.

As to `CCCCCCCC/C=C\CCCCCCCC(=O)O[C@H](COC(=O)CCCCCCCCCCCCCCC)COP(=O)(O)OC[C@H](N)C(=O)O` [POPS, 1-palmitoyl-2-oleoyl-sn-glycero-3-phospho-L-serine], in data set [2], the Km is above 26.2 µM.

For the molecule `[O]=[V]([OH])([OH])[OH]` [orthovanadate], the KI result in data set [3] is given as “vanadate had a rather poor KI, in the millimolar range (Figure 7E)”.

B1: Drs2p-Cdc50p complex (Saccharomyces cerevisiae S288C) (protein)
chain: T1 sequence (P39524 1-1355)
notes: full-length, co-expressed in yeast W303.1b/GAL4; N-terminal Bad tag (Drs2p) and His10 tag (Cdc50p) cut by TEV, Gly plus four-Gly linker left; 154,050 Da Drs2p, 45,136 Da unglycosylated Cdc50p; glycosylated; 1:1 complex in DDM; with Cell division control protein 50
B1: the K0.5 in data set [4] is reported as 10 µM.

B2: Cdc50p, tag-free after TEV cleavage (natural protein, S. cerevisiae, UniProt P25656 1-391, looked up)
chain: T1 sequence (P25656 1-391 partner)
modifications: glycosylated
notes: Cdc50p, accessory subunit of Drs2p; recombinant non-glycosylated mass 45,136 Da including the linker glycines; also called glycosylated Cdc50p; source: S. cerevisiae W303.1b/GAL4, co-expressed with Drs2p, purified with it (streptavidin-Sepharose, TEV elution, Ni2+-TED; SEC); not shown: His10, N-terminal, cleaved
With B2, the “stoichiometry N” value in data set [5] is 1 Drs2p:Cdc50p (mol:mol).
